Experimental data published in PMC12486301 (The Journal of pharmacology and experimental therapeutics, 2025).
Where a name gives a salt, the structure may show the parent alone.

What follows are compounds tested against T1, ENT1 (Homo sapiens, UniProt Q99808) (assay: Inhibition of [3H]uridine uptake into WT HeLa). Settings: not given.
T1 sequence (Q99808 1-456): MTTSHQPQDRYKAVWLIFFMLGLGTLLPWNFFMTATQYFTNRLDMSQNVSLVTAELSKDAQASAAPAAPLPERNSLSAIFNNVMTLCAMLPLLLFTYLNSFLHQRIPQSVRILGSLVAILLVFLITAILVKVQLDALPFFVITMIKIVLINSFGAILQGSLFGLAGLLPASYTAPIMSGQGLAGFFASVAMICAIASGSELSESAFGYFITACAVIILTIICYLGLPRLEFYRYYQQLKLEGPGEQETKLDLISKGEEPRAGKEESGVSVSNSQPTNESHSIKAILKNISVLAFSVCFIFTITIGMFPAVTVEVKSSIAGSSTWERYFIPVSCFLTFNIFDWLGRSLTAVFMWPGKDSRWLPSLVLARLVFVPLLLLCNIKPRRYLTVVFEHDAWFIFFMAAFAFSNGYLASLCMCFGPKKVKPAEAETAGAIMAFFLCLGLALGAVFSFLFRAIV
Type: cell-based
In the case of `O=C(O[C@@H]1Cc2c(O)cc(O)cc2O[C@@H]1c1ccc(O)c(O)c1)c1cc(O)c(O)c(O)c1` [Epicatechin gallate], the IC50 is reported as 4 µM.

Same assay, conditions: 20 μM; Spectrum Collection screen (Table S1)
`COc1cc(O)cc(O)c1C(=O)c1ccccc1` [isocotoin] was tested, and the “ENT1 inhibition of uridine uptake (Spectrum screen, text)” value was ~ 65%.

Same assay, conditions: 20 μM; model-predicted compounds from MedChem Express Drug Repurposing Library
With `COc1cc(C(=O)c2c(C)oc3c(O)c(OC)ccc23)cc(OC)c1OC` [BNC105] the “ENT1 % Inhibition (±SD)” value was 97.87 (1.06) %.
In the case of `COc1ccc(S(=O)(=O)Nc2cc(-c3c(O)ccc4ccccc34)c(O)c3ccccc23)cc1` [C188-9], the “ENT1 % Inhibition (±SD)” value is reported as 72.99 (5.06) %.
With `COc1cccc(C(=O)COc2ccc(CC3SC(=O)NC3=O)cc2)c1` (stereo not shown) [Azemiglitazone] the “ENT1 % Inhibition (±SD)” value was 74.95 (4.00) %.
`C#CCOc1ccc(/C=C/C(=O)Nc2ccccc2C(=O)O)cc1OC` [FT011] was tested, and the “ENT1 % Inhibition (±SD)” value was 54.94 (2.47) %.
`COc1cccc(-c2nccc3[nH]c(=O)c(-c4noc(C)n4)cc23)c1` [Radequinil] was tested, and the “ENT1 % Inhibition (±SD)” value was 98.17 (0.19) %.
In the case of `CC[C@@H](C(=O)Nc1ccc(C(N)=O)c(F)c1)n1cc(OC)c(-c2cc(Cl)ccc2-n2cc(C(F)(F)F)nn2)cc1=O` [Asundexian], the “ENT1 % Inhibition (±SD)” value is reported as 95.39 (0.23) %.
In the case of `C/C=C/c1cc(OC)c(OC)cc1OC` [alpha-Asarone], the “ENT1 % Inhibition (±SD)” value is reported as 52.42 (3.92) %.
With `C#Cc1cccc(Nc2ncnc3cc(OC)c(OCCCN4CCOCC4)cc23)c1` [NRC-2694] the “ENT1 % Inhibition (±SD)” value was 67.27 (11.1) %.

Same assay, conditions: HeLa, read-out: ENT1 % Inhibition (±SD)
`CCOc1ccc2c(-c3cccc(F)c3)nn(CC(=O)N(C)c3ccc4nc(C)oc4c3)c(=O)c2c1` [CFTR corrector 2] was tested, and the inhibition at 20 µM was 98%.
In the case of `COc1cc2c(Nc3ccc(Br)cc3F)ncnc2cc1OCC1CCN(C)CC1` [Vandetanib], the inhibition at 20 µM is reported as 50.3%.
In the case of `CC(=O)O[C@]1(C(C)=O)CC[C@H]2[C@@H]3C=C(C)C4=CC(=O)CC[C@@H]4[C@H]3CC[C@@]21C` [Nomegestrol acetate], the inhibition at 20 µM is reported as 82.9%.
In the case of `CCCOc1ccc(S(=O)(=O)N2CCN(CCO)CC2)cc1-c1nc2c(CCC)cn(CC)c2c(=O)[nH]1` [Mirodenafil (dihydrochloride), Mirodenafil], the inhibition at 20 µM is reported as 79.3%.
`Cc1cccc(-c2nn3c(c2-c2ccnc4ccc(C(N)=O)cc24)CCC3)n1` [Galunisertib] showed an inhibition at 20 µM of 56.2%.
`COC(=O)C1=C(C)NC(C)=C(C(=O)OC)C1c1ccccc1[N+](=O)[O-]` [Nifedipine] gave an inhibition at 20 µM of 72.6%.
In the case of `Oc1ccc(C2=Cc3ccc(O)cc3OC2)cc1` [Phenoxodiol], the inhibition at 20 µM is reported as 69.3%.
`COC(=O)C1=C(C)NC(C)=C(C(=O)OC(C)C)C1c1cccc2nonc12` (stereo not shown) [Isradipine] showed an inhibition at 20 µM of 92.7%.
`COc1cc2c(cc1OC)-c1c/c(=N\c3c(C)cc(C)cc3C)n(CCNC(N)=O)c(=O)n1CC2` [Ensifentrine] showed an inhibition at 20 µM of 98.2%.
`Cc1c(OCC(F)(F)F)ccnc1C[S@@+]([O-])c1nc2ccccc2[nH]1` [(R)-Lansoprazole] showed an inhibition at 20 µM of 73.6%.
For `COc1cc(C[C@H]2C(=O)OC[C@@H]2Cc2ccc(OC)c(OC)c2)ccc1O` [Arctigenin], the inhibition at 20 µM was 67.5%.
Compound `COC(=O)C1=C(C)NC(C)=C(C(=O)OCCN(C)Cc2ccccc2)C1c1cccc([N+](=O)[O-])c1` (stereo not shown) [Nicardipine (hydrochloride), Nicardipine] has an inhibition at 20 µM of 76.8%.
Compound `COc1ccc2[nH]c([S+]([O-])Cc3ncc(C)c(OC)c3C)nc2c1` (stereo not shown) [Omeprazole (sodium), Omeprazole] has an inhibition at 20 µM of 51.3%.
Compound `COc1cc(OC)c2c(=O)[nH]c(-c3cc(C)c(OCCO)c(C)c3)nc2c1` [Apabetalone] has an inhibition at 20 µM of 88.1%.
`CNc1nc(-c2cccc(NC(=O)c3ccc(C(=O)OC)cc3)c2)c2cc(OC)c(OC)cc2n1` [Lotamilast] gave an inhibition at 20 µM of 81.3%.
With `COc1ccc(CN=c2[nH]c(N3CCC[C@H]3CO)ncc2C(=O)NCc2ncccn2)cc1Cl` [Avanafil] the inhibition at 20 µM was 100%.
In the case of `COc1cccc(-c2cc(F)c(Nc3ncccc3C(=O)O)c(F)c2)c1` [Farudodstat], the inhibition at 20 µM is reported as 86.8%.
In the case of `C=CC(=O)N1CCC(c2ccc(C(N)=O)c(-c3ccc(Oc4ccccc4)cc3)n2)CC1` [Orelabrutinib], the inhibition at 20 µM is reported as 87.5%.
`COc1cc(/C=C/c2ccc(O)cc2)cc(OC)c1` [Pterostilbene] gave an inhibition at 20 µM of 54.7%.

Same assay, conditions: HeLa, read-out: ENT1 inhibition of uridine uptake (Spectrum screen, text)
`O=C(O[C@@H]1Cc2c(O)cc(O)cc2O[C@@H]1c1ccc(O)c(O)c1)c1cc(O)c(O)c(O)c1` [Epicatechin gallate] gave an inhibition at 20 µM of ~85%.

Same assay, conditions: read-out: predicted IC50 for ENT1; predicted from inhibition at 20 μM
Work on `COc1cc(O)cc(O)c1C(=O)c1ccccc1` [isocotoin] yielded an IC50 of 12 µM.
